# Results reported in patent US5637596A, “Azabicycloalkyl derivatives of imidazo[1,5-a]indol-3-one and process for their preparation” (Pharmacia S.p.A., priority 1994, dated 1997).
# Legend:
# serotonin 5HT3 receptors = molecular target: T1, serotonin 5HT3 receptors (Rattus norvegicus, UniProt P35563); experiment: Affinity for serotonin 5HT3 receptors in rat entorhinal cortex using radioligand 3H-BRL 43694; assay type: binding
# T1 construct: assessed for instance in rat entorhinal cortex using a selective radioligand; from tissue; host or cells: rat entorhinal cortex
# T1 sequence (P35563 24-483): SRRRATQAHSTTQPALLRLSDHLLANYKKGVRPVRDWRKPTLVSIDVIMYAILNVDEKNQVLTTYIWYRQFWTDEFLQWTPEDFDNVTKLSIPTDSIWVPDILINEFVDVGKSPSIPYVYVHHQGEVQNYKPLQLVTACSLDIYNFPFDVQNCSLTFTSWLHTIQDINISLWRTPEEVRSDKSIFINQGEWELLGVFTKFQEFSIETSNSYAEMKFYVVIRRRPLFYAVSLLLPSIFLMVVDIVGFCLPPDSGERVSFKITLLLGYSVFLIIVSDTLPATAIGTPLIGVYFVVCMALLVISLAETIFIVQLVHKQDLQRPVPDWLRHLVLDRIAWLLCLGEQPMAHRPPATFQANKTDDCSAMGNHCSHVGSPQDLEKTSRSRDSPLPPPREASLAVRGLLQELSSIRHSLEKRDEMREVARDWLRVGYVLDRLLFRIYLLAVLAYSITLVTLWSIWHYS
# Protocol: The affinity for serotonin 5HT3 receptors was assessed for instance in rat entorhinal cortex using a selective radioligand ^3 H-BRL 43694 as described by Nelson and Thomas (1989).
# Nelson D. R. and Thomas D. R., [^3 H]-BRL 43694 (Granisetron), a specific ligand for 5HT3 binding sites in rat brain cortical membranes, Biochem. Pharmac., 38, 1693-1695, 1989.
# The following Table II summarized the data obtained in this in-vitro test for two representative compounds of the invention.
# 5-HT3 binding affinity for rat enthiorinal cortex
# 5HT3 receptor = molecular target: T2, 5HT3 receptor (Rattus norvegicus, UniProt P35563); experiment: Inhibition of the von Bezold-Jarisch chemoreflex evoked by 5-HT in the anesthetized rat (in-vivo 5HT3 antagonist activity); conditions: von Bezold-Jarisch reflex elicited by 5-HT (30 μg/kg i.v.); for ED50: iv, limits printed on the next line; for % inhibition: dose 100 μg/kg i.v., N = 6, mean
# T2 construct: chemoreflex evoked by 5HT in the anesthetized rat; from tissue; host or cells: anesthetized rat, whole animal (endogenous receptor)
# T2 sequence (P35563 24-483): T1 sequence (P35563 24-483)
# Protocol: Pharmacol. 326, 36-44 (1984).
# The following Table I reports in-vivo 5HT3 antagonist activity data obtained in this test for two representative compounds of the invention.
# Inhibition of the von Bezold-Jarisch reflex
# elicited by 5-HT (30 μg/kg i.v.) by FCE
# compounds in the anesthetized rat. Values are
# mean ± in S.E.M. from N animals
SMILES,IC50 (serotonin 5HT3 receptors) [nM],ED50 (5HT3 receptor) [mg/kg],% inhibition (5HT3 receptor) [%]
"CN1C2CCC1CC(N1Cc3cc4ccccc4n3C1=O)C2 (stereo not drawn) [FCE 28837, (endo)-2-(8-methyl-8-azabicyclo[3.2.1]oct-3-yl)-1,2-dihydro-imidazo[1,5-a]indol-3-one]",10,0.0118,88.5
"Cl.O=C1N(C2CN3CCC2CC3)Cc2cc3ccccc3n21 (stereo not drawn) [FCE 28841, 2-(1-azabicyclo[2.2.2]oct-3-yl)-1,2-dihydro-imidazo[1,5-a]indol-3-one hydrochloride]",7,0.0218,90.71
